The target of the experiment is T1, CYP153A33 (Marinobacter nauticus, UniProt A1TY82).
T1 construct: gene Maqu_0600; co-expressed with P. putida CamA/CamB and E. coli FadL in E. coli BW25113(DE3) delta-fadD; with Putidaredoxin (Pseudomonas putida); Putidaredoxin reductase CamA (Pseudomonas putida)
T1 sequence (A1TY82 1-470): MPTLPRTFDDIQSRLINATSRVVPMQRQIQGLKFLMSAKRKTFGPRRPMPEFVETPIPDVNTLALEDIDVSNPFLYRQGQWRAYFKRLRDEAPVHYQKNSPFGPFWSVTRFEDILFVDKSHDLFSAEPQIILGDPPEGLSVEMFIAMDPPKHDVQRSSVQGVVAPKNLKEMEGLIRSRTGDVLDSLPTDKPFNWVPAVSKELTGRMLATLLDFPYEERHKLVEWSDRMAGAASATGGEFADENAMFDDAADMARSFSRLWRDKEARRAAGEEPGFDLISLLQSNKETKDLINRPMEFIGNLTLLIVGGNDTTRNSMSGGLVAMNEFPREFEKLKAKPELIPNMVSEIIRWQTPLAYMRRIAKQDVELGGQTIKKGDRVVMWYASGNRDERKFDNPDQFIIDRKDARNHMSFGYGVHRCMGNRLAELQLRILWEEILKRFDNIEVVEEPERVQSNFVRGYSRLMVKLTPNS
Kind of experiment: whole-cell biotransformation, GC analysis of products. The experiment is classed as cell-based. The following applies: 10 mM substrate, pH 7.0, 30 °C, resting E. coli cells OD600 30 with 1% glucose, CamA/CamB and FadL co-expressed; product alpha,omega-dodecanediol.

These results are taken from PMC8764613, “Engineering of CYP153A33 With Enhanced Ratio of Hydroxylation to Overoxidation Activity in Whole-Cell Biotransformation of Medium-Chain 1-Alkanols” (Frontiers in Bioengineering and Biotechnology, 2022).

For the compound `CCCCCCCCCCCCO` [A, 1-dodecanol], the “whole-cell biotransformation, GC analysis of products” value was “CYP153A33-encoding gene was co-expressed with CamAB redox proteins for the whole-cell biotransformation of 1-dodecanol”.
